Test results reported in US20180368410A1, “MICROBIOCIDAL OXADIAZOLE DERIVATIVES” (SYNGENTA PARTICIPATIONS AG, priority 2015, published 2018).

What was measured:
[1] = system: Puccinia recondita f. Sp. Tritici; assay: Puccinia recondita f. sp. tritici / wheat / leaf disc preventative (brown rust); assay type: in vivo, Puccinia recondita f. sp. tritici on wheat cv. Kanzler; conditions: foliar, 200 ppm in the applied formulation, inoculated 1 day after application, assessed 7 to 9 days after application, vs untreated control leaf disks, read-out: disease control
Summary of the method: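 Wheat cv. Kanzler leaf segments on agar were sprayed with compound (DMSO stock diluted with 0.025% Tween20) 1 day before inoculation with spores. Segments were held at 19 °C, 75% rh, 12 h light/dark. Percent disease control versus untreated was scored 7–9 days after application.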

Phakopsora pachyrhizi = Phakopsora pachyrhizi / soybean / leaf disc preventative (Asian soybean rust); assay type: in vivo, Phakopsora pachyrhizi on soybean; conditions: foliar, 200 ppm in the applied formulation, inoculated one day after application, assessed 12 to 14 days after application, vs untreated control leaf disks, read-out: disease control
Summary of the method: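 Read-out is percent disease control relative to untreated check discs, assessed once untreated discs show adequate disease, 12 to 14 days after application. Compounds, tested at 200 ppm in the applied formulation, are sprayed onto soybean leaf discs one day before inoculation with a spore suspension.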

[2] = system: Glomerella Lacenarium (Colletotrichum lacenarium); assay: Glomerella lagenarium (Colletotrichum lagenarium) liquid culture / cucumber / preventative (anthracnose); assay type: cell-based; conditions: 20 ppm in the applied formulation, liquid culture in PDB, 24° C., inhibition of growth measured photometrically 3 to 4 days after application, vs untreated control, read-out: disease control
Summary of the method: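 PDB broth seeded with cryo-stored conidia, added onto compound (DMSO solution) in 96-well plates; 24° C.; photometric growth read at 3–4 d post-application; % inhibition vs untreated check.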

[3] = system: Puccinia recondita f. Sp. Triticil; assay: Puccinia recondita f. sp. tritici / wheat / leaf disc curative (brown rust); assay type: in vivo, Puccinia recondita f. sp. tritici on wheat cv. Kanzler; conditions: foliar, 200 ppm in the applied formulation, applied 1 day after inoculation, assessed 6 to 8 days after application, vs untreated control leaf disks, read-out: disease control
Summary of the method: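 Curative leaf-segment test, cv. Kanzler: spore inoculation, dark storage 19° C/75% RH, compound spray 1 day post-inoculation. Then 12 h light/12 h dark, 19° C, 75% RH. Read-out: % disease control vs untreated check, 6–8 d after application.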

Uromyces viciae-Fabael = assay: Uromyces viciae-fabae / field bean / leaf disc preventative (faba-bean rust); assay type: in vivo, Uromyces viciae-fabae on field bean; conditions: foliar, 288 h, 100 ppm in the applied formulation, inoculated two hours after application, assessed 12 days after application, vs untreated control leaf discs, read-out: disease control
Experimental: Leaf disks or leaf segments of various plant species are cut from plants grown in a greenhouse. The cut leaf disks or segments are placed in multiwell plates (24-well format) onto water agar. The leaf disks are sprayed with a test solution before (preventative) or after (curative) inoculation. Compounds to be tested are prepared as DMSO solutions (max. 10 mg/ml) which are diluted to the appropriate concentration with 0.025% Tween20 just before spraying. The inoculated leaf disks or segments are incubated under defined conditions (temperature, relative humidity, light, etc.) according to the respective test system. A single evaluation of disease level is carried out 3 to 14 days after inoculation, depending on the pathosystem. Percent disease control relative to the untreated check leaf disks or segments is then calculated.
Field bean leaf discs are placed on water agar in multiwell plates (96-well format) and 10 μl of the formulated test compound diluted in acetone and a spreader pipetted onto the leaf disc. Two hours after application leaf discs are inoculated by spraying a spore suspension on the lower leaf surface. The leaf discs are incubated in a climate cabinet at 22° C. with 18 hour day and 70% relative humidity. The activity of a compound is assessed as percent disease control compared to untreated when an appropriate level of disease damage appears in untreated check leaf disks (12 days after application).
The following compounds at 100 ppm in the applied formulation give at least 80% disease control in this test when compared to untreated control leaf discs under the same conditions, which show extensive disease development.

Row | SMILES | melting point | pest or weed control at 200 ppm [1] | pest or weed control at 200 ppm (Phakopsora pachyrhizi) | inhibition of growth at 20 ppm [2] | pest or weed control at 200 ppm [3] | pest or weed control at 100 ppm (Uromyces viciae-Fabael)
1 | O=C(NCc1ccc(-c2noc(C(F)(F)F)n2)c(F)c1F)C1CC1 [Compound 1.55, N-[[2,3-difluoro-4-[5-(trifluoromethyl)-1,2,4-oxadiazol-3-yl]phenyl]methyl] cyclopropanecarboxamide] | 144 to 150 °C | ≥ 80% | ≥ 80% | ≥ 80% | ≥ 80% | –
2 | O=C(NCc1ccc(-c2noc(C(F)(F)F)n2)c(F)c1)C1CCCO1 (stereo not drawn) [Compound 1.59, N-[[3-fluoro-4-[5-(trifluoromethyl)-1,2,4-oxadiazol-3-yl]phenyl]methyl] tetrahydrofuran-2-carboxamide] | 56 to 58 °C | ≥ 80% | ≥ 80% | ≥ 80% | ≥ 80% | –
3 | CC1=NOC(C(=O)NCc2ccc(-c3noc(C(F)(F)F)n3)c(F)c2)C1 (stereo not drawn) [Compound 1.60, N-[[3-fluoro-4-[5-(trifluoromethyl)-1,2,4-oxadiazol-3-yl]phenyl]methyl]-3-methyl-4,5-dihydroisoxazole-5-carboxamide] | 134 to 138 °C | ≥ 80% | ≥ 80% | ≥ 80% | ≥ 80% | –
4 | O=C(NCc1ccc(-c2noc(C(F)(F)F)n2)cc1)C1CC1 [Compound 1.1, N-[[4-[5-(trifluoromethyl)-1,2,4-oxadiazol-3-yl]phenyl]methyl] cyclopropanecarboxamide] | 183 to 190 °C | ≥ 80% | ≥ 80% | ≥ 80% | ≥ 80% | ≥ 80%
5 | O=C(NCc1ccc(-c2noc(C(F)(F)F)n2)c(F)c1F)C1CCCO1 (stereo not drawn) [Compound 1.80, N-[[2,3-difluoro-4-[5-(trifluoromethyl)-1,2,4-oxadiazol-3-yl]phenyl]methyl] tetrahydrofuran-2-carboxamide] | 80 to 86 °C | ≥ 80% | ≥ 80% | ≥ 80% | ≥ 80% | –
6 | O=C(NCc1ccc(-c2noc(C(F)(F)F)n2)cc1)C1(F)CC1 [Compound 1.2, 1-fluoro-N-[[4-[5-(trifluoromethyl)-1,2,4-oxadiazol-3-yl]phenyl]methyl] cyclopropanecarboxamide] | 101 to 108 °C | ≥ 80% | ≥ 80% | ≥ 80% | ≥ 80% | ≥ 80%
7 | O=C(NCc1ccc(-c2noc(C(F)(F)F)n2)c(F)c1F)c1ccccc1Cl [Compound 1.56, 2-chloro-N-[[2,3-difluoro-4-[5-(trifluoromethyl)-1,2,4-oxadiazol-3-yl]phenyl]methyl] benzamide] | 144 to 150 °C | ≥ 80% | ≥ 80% | ≥ 80% | – | –
8 | O=C(NCc1ccc(-c2noc(C(F)(F)F)n2)cc1)C1CCCO1 (stereo not drawn) [Compound 1.5, N-[[4-[5-(trifluoromethyl)-1,2,4-oxadiazol-3-yl]phenyl]methyl] tetrahydrofuran-2-carboxamide] | 76 to 83 °C | ≥ 80% | ≥ 80% | ≥ 80% | ≥ 80% | ≥ 80%
9 | O=C(NCc1ccc(-c2noc(C(F)(F)F)n2)c(F)c1)C1CC1 [Compound 1.57, N-[[3-fluoro-4-[5-(trifluoromethyl)-1,2,4-oxadiazol-3-yl]phenyl]methyl] cyclopropanecarboxamide] | 139 to 140 °C | ≥ 80% | ≥ 80% | ≥ 80% | ≥ 80% | –
10 | O=C(NCCc1ccc(-c2noc(C(F)(F)F)n2)cc1)C1CCCO1 (stereo not drawn) [Compound 1.97, N-[2-[4-[5-(trifluoromethyl)-1,2,4-oxadiazol-3-yl]phenyl]ethyl] tetrahydrofuran-2-carboxamide] | 68.7 to 70.5 °C | ≥ 80% | ≥ 80% | ≥ 80% | ≥ 80% | –

Second part, led by results:

Row | melting point | SMILES | pest or weed control at 200 ppm [1] | pest or weed control at 200 ppm (Phakopsora pachyrhizi) | inhibition of growth at 20 ppm [2] | pest or weed control at 200 ppm [3] | pest or weed control at 100 ppm (Uromyces viciae-Fabael)
11 | 146 to 148 °C | O=C(NCc1ccc(-c2noc(C(F)(F)F)n2)c(F)c1)c1ccccc1Cl [Compound 1.58, 2-chloro-N-[[3-fluoro-4-[5-(trifluoromethyl)-1,2,4-oxadiazol-3-yl]phenyl]methyl] benzamide] | ≥ 80% | ≥ 80% | ≥ 80% | – | –
12 | 102 to 112 °C | Cc1occc1C(=O)NCc1ccc(-c2noc(C(F)(F)F)n2)cc1 [Compound 1.4, 2-methyl-N-[[4-[5-(trifluoromethyl)-1,2,4-oxadiazol-3-yl]phenyl]methyl]furan-3-carboxamide] | ≥ 80% | ≥ 80% | ≥ 80% | ≥ 80% | ≥ 80%
13 | 150 to 151.1 °C | O=C(NCCc1ccc(-c2noc(C(F)(F)F)n2)cc1)C1CC1 [Compound 1.96, N-[2-[4-[5-(trifluoromethyl)-1,2,4-oxadiazol-3-yl]phenyl]ethyl] cyclopropanecarboxamide] | ≥ 80% | ≥ 80% | ≥ 80% | ≥ 80% | –
14 | 133 to 140 °C | O=C(NCCc1ccc(-c2noc(C(F)(F)F)n2)cc1)c1ccccc1Cl [Compound 1.99, 2-chloro-N-[2-[4-[5-(trifluoromethyl)-1,2,4-oxadiazol-3-yl]phenyl]ethyl]benzamide] | ≥ 80% | ≥ 80% | – | – | –
15 | 136 to 142 °C | O=C(NCc1ccc(-c2noc(C(F)(F)F)n2)cc1)c1ccccc1Cl [Compound 1.3, 2-chloro-N-[[4-[5-(trifluoromethyl)-1,2,4-oxadiazol-3-yl]phenyl]methyl]benzamide] | ≥ 80% | ≥ 80% | ≥ 80% | – | ≥ 80%
